Experimental data taken from ChEMBL document CHEMBL1149295, “A combined QM/MM approach to protein--ligand interactions: polarization effects of the HIV-1 protease on selected high affinity inhibitors” (J Med Chem, 2004).

Assay: Inhibition of HIV1 protease
Set-up: species or system Human immunodeficiency virus 1

Row | Ki | SMILES
1 | 0.008 nM | CCC[C@@]1(CCc2ccccc2)CC(O)=C([C@H](CC)c2cccc(NS(=O)(=O)c3ccc(C(F)(F)F)cn3)c2)C(=O)O1 [TIPRANAVIR]
2 | 0.41 nM | Nc1cccc(CN2C(=O)N(Cc3cccc(N)c3)[C@H](Cc3ccccc3)[C@H](O)[C@@H](O)[C@H]2Cc2ccccc2)c1 [MOZENAVIR]
3 | 0.28 nM | Cc1c(O)cccc1C(=O)N[C@@H](CSc1ccccc1)[C@H](O)CN1C[C@H]2CCCC[C@H]2C[C@H]1C(=O)NC(C)(C)C [NELFINAVIR]
